Results: US9012505B2, “Antimicrobial compounds and uses thereof” (priority 2010, dated 2015)
Entries after “also recorded” stand apart in the source; their conditions may differ.

What was measured:
[1] = system: PexsCEBA-lacZ (T3SS reporter strain); assay: T3SS reporter PexsCEBA-lacZ β-galactosidase activity; format: cell-based, Pseudomonas aeruginosa; conditions: LB medium with 10 mM NTA, OD600 about 1.5
Description: The promoter of exsCEBA was amplified by PCR using the primer pairs pC-F/pC-R ((5′-[…] (SEQ ID NO: 3)/5′-ggggcgcctcctaaagctc (SEQ ID NO: 4)), and cloned into the integration vector mini-CTX-lacZ (Zhou et al., 2007; Hoang et al., 2000; Becher and Schweizer, 2000). The construct was introduced into E. coli S17-1(λpir) and then integrated into the chromosome of P. aeruginosa as described previously (Hoang et al., 2000). The P. aeruginosa transconjugants were then selected on LB agar plates containing 100 μg/ml tetracycline and used as the T3SS reporter strain.
For determination of the inhibitory activity against T3SS, MDEA was added to the LB medium supplemented with 10 mM NTA before inoculation of the T3SS reporter strain. After incubation at 37° C. till OD600 reached about 1.5, the bacterial cells were harvested by centrifugation to measure the β-galactosidase activities following the method previously described (Jeffrey, 1992).
Type III secretion system (T3SS) is a major virulence determinant conserved in many Gram-negative bacterial pathogens. To test the ability of MDEA on regulation of T3SS gene expression in Pseudomonas aeruginosa, the T3SS reporter construct PexsCEBA-lacZ (Zhou et al., 2007) was used. The promoter PexsCEBA directs the expression of the T3SS master regulator ExsA, which positively controls the expression of all T3SS genes in P. aeruginosa (Yahr and Wolfgang, 2006; Frank, 1997).

[2] = system: Xanthomonas campestris strain 8004dF; assay: Biofilm assay (Xcc biofilm dispersal, cell aggregates by phase contrast microscopy); format: cell-based; conditions: YEB medium
Procedure: For analysis of biofilm formation, a single colony of Xanthomonas campestris strain 8004dF (He et al., 2006) was inoculated and grown overnight at 28° C. in 5 ml of YEB medium. The bacterial cells in culture were visualized with a phase contrast microscope (Olympus BX50) and photographs were taken with an Olympus DP70 digital camera.
Given its structural similarity to DSF (Wang et al., 2004), which is known to regulate biofilm dispersal (Dow et al., 2003; He et al., 2006), MDEA was tested for its ability to promote Xcc biofilm dispersion. The Xcc DSF mutant ΔrpfF, which formed extensive cell aggregates (biofilm) in YEB medium (FIG. 2a), was used in this assay.

[3] = system: C. albicans strain SC5314; assay: Candida albicans germ tube formation (morphological transition); format: cell-based; conditions: 37° C., 3 h, solvent control about 70%
Procedure: C. albicans strain SC5314 was incubated at 28° C. for overnight with shaking in the GMM medium consisting of 6.7 g of Bacto yeast nitrogen base (Difco) and 0.2% glucose (pH 7.2). C. albicans cells proliferate in yeast form under these conditions. The yeast cells were then diluted 20-fold in fresh GMM medium with or without MDEA. The cells were induced for 3 h at 37° C. Visualization and quantification of germ tube formation were performed using a phase contrast microscope (Olympus BX50) by counting about 400 C. albicans cells. The experiment was repeated twice, and the imaging was done with an Olympus DP70 digital camera.
Candida albicans is a fungal pathogen responsible for various forms of candiasis ranging from mucosal damages to serious systemic infections. It normally exists as a yeast but can form germ tubes (mycelia) under certain environmental conditions including human body temperature and serum. This morphological transition ability is critical for the fungal pathogen to establish infections. Mutants defective in morphological transitions are avirulent and unable to cause infections (Lo et al., 1997; Braun et al., 2000; Saville et al., 2003; Zheng et al., 2003). […] MDEA represents another structurally different unsaturated fatty acid. To determine its potential inhibitory activity MDEA was added to medium at various concentrations before inoculation of the fungal yeast cells, using methanol as a solvent control. After incubation at 37° C. for 3 h, about 70% of C. albicans cells in solvent control formed germ tubes (FIG. 4). In contrast, less than 30% and 5% of yeast cells could germinate in the presence of 0.5 or 5 μM of MDEA (FIG. 4). When the concentration was increased to 25 μM, the germ tube formation was reduced to 0.17% (FIG. 4).

exsC = assay: Semi-quantitative RT-PCR of T3SS gene expression; format: cell-based, Pseudomonas aeruginosa; conditions: MDEA treatment, concentration not given
Procedure: Bacteria were grown in LB medium supplemented with 10 mM NTA at 37° C. with shaking (250 rpm) overnight were diluted to an OD600 of 0.05 in fresh LB medium and grown under the same conditions to an OD600 of 1.5. RNA samples were isolated using the RNeasy mini kit according to the manufacturer's instructions (Qiagen). The concentration and purity of RNA were determined by spectrometry and agarose gel electrophoresis. RT-PCR analysis was performed using the One-step RT-PCR kit according to the manufacturer's instructions (Qiagen) with the primer pairs RT-C—F/RT-C—R ((5′-[…] (SEQ ID NO: 5), 5′-[…] (SEQ ID NO: 6)).
The effect of MDEA on inhibition of T3SS was further analyzed by semi-quantitative RT-PCR. […] The data are consistent with the results based on the T3SS reporter (FIG. 3a).

For CC(C)CCCCC=CC/C=C\C(=O)O [MDEA, cis-11-methyldodeca-2,5-dienoic acid], the “reduction of PexsCEBA-lacZ activity” value ([1]; 5 μM MDEA) was 64.1%, the “reduction of PexsCEBA-lacZ activity” value ([1]; 10 μM MDEA) was 68.5% and the “reduction of PexsCEBA-lacZ activity” value ([1]; 25 μM MDEA) was 74.4%. For the same compound, the “Effect on cell aggregates (biofilm) of Xcc DSF-deficient mutant” value ([2]; 1 μM MDEA) was “inhibited 8004dF biofilm formation; also recorded: eliminated most of the cell aggregates”, the “Effect on cell aggregates (biofilm) of Xcc DSF-deficient mutant” value ([2]; 5 μM MDEA) was “inhibited 8004dF biofilm formation; also recorded: all the cell aggregates disappeared” and the “yeast cells that germinate (germ tube formation)” value ([3]; 0.5 μM MDEA) was “less than 30%”. For the same compound, the “yeast cells that germinate (germ tube formation)” value ([3]; 5 μM MDEA) was less than 5%, the germ tube formation ([3]; 25 μM MDEA) was 0.17% and the “reduction in transcriptional expression of exsC” value (exsC) was “about 60%”.
